Source: patent publication US20230172925A1, “SKIN-CARE COMPOSITIONS AND USES THEREOF” (AHAVA - DEAD SEA LABORATORIES LTD., priority 2019, published 2023)

What was measured:
Assay type in all cases: cell-based
[1] = system: human skin explants (epidermis); assay: Human skin organ culture with UVB stressor, viability by MTT assay; details: SDS 10% applied only once, not irradiated, 24 hours of incubation
Protocol: (§1) Topical exposure till 48 hours in total (24 hr recovery following topical application+24 hr after exposure to UVB irradiation) with UVB radiation as stressor on human skin model
(§2) The following general procedure was used in the study:
(§3) Day 1: Topical application of 3 μl of each sample solution on the epidermis of each skin explant. Incubate for 24 hours. SDS 10% was applied only once, and was not farther irradiated with UVB.
(§4) Day 2: Skin explants were washed once with PBS and irradiated with UVB lamp at 200 mJ/cm2. After radiation it was incubated for 30 min and then topically apply each treatment (sample solution) again. Control was not irradiated under UVB light. UVB radiated control was without any treatment except radiation.
(§5) Day 3: Viability and Caspase3 activity were measured for the epidermis layer. The medium was collected for cytokines test.
FIG. 2 illustrates a flow diagram of topical exposure/treatment till 48 hours, 24 hr recovery following topical application +24 hr after exposure to UVB irradiation) with UVB radiation as stressor on human skin model experiment. In the Experiment the SDS irritation control sample was a skin explant that was topical applied with 3 μl SDS 10% solution at day 1 only.
The viability of the various skin explants was measured by the 5-dimethylthiazol-2-yl]-2,5-diphenyl tetrazolium bromide (MTT) assay.

IL-1α [2] = assay: Human skin organ culture with UVB stressor, IL-1α secretion in the medium; details: SDS 10% applied once, incubation of 24 hours
Protocol: as §1, §2, §3, §4, §5
FIG. 5 illustrates the IL-1α secretion results in the medium as observed with 3 to 4 repetition of the tests. In FIG. 5 the IL-1α secretion of the irradiated sample “UVB” was selected as 100% and it equals 8.1±1.0 pg/ml.

[3] = system: human skin explants (epidermis); assay: Human skin organ culture without UVB stressor, topical exposure till 96 hours, viability by MTT assay; details: no UVB; SDS 10% applied only once; after 96 hours
Protocol: (§6) Topical Exposure Till 96 Hours without External UVB Radiation as Stressor on Human Skin Model
(§7) Day 1: Topical application of 3 μl of each solution on the epidermis of each skin explant. Incubate for 24 hours. (SDS Irritation control: topical application of 3 ul SDS 10% was applied on the skin model at day 1 only. The rest of the days samples were untouched).
(§8) Day 2: Topical application of 3 μl of each solution on the epidermis of each skin explant. Incubate for 24 hours in fresh medium (medium was not collected). (UVB control: after 24 hours incubation with 3 μl H2O skin was irradiated with 200 mJ/cm2 UVB. The rest of the experiment days sample were topically applied with H2O, as control).
(§9) Day 3: Topical application of 3 μl of each solution on the epidermis of each skin explant. Incubate for 24 hours in fresh medium (medium was collected)—48 hours of total topical incubation.
(§10) Day 4: Topical application of 3 μl of each solution on the epidermis of each skin explant. Incubate for 24 hours in fresh medium (medium was collected)—72 hours of total topical incubation.
Day 5: Topical application of 3 μl of each solution on the epidermis of each skin explant. Incubate for 24 hours in fresh medium (medium was collected)—96 hours of total topical incubation. MTT assay was performed. […]
The viability of the various skin explants was measured by the MTT assay.

TNFα [4] = assay: Human skin organ culture with UVB stressor, TNFα secretion in the medium; details: SDS 10%, one treatment, not irradiated
Protocol: as §1, §2, §3, §4, §5
FIG. 4 illustrates the TNFα secretion results in the medium as observed with 2 to 4 repetition of the tests. In FIG. 4 the TNFα secretion of the irradiated sample “UVB” was selected as 100% and it equals 53±30 pg/ml.

IL-1α [5] = assay: Human skin organ culture without UVB stressor, IL-1α secretion; details: no UVB, SDS 10% applied once
Protocol: as §6, §7, §8, §9, §10
(§11) Day 5: Topical application of 3 μl of each solution on the epidermis of each skin explant. Incubate for 24 hours in fresh medium (medium was collected)—96 hours of total topical incubation. MTT assay was performed.
FIG. 9A illustrates the IL-1α secretion results in the medium. In FIG. 9A the IL-1α secretion of the H2O sample was used as a control (9.0±0.7 pg/ml […]) for each time point. FIG. 9B is a magnification of FIG. 9A.

TNFα [6] = assay: Human skin organ culture without UVB stressor, TNFα secretion; details: no UVB; SDS 10% applied once; after incubation of 48 hours
Protocol: as §6, §7, §8, §9, §10, §11
FIG. 8 illustrates the TNFα secretion tested results. In FIG. 8 the TNFα secretion of the H2O sample was used as a control (0.35±0.05 pg/ml) for each time point.

[7] = system: MatTek EFT-400 full thickness tissues; assay: DNA microarray gene expression in skin equivalents, complex vs individual ingredients (Example 5); design: key to Genes up and downregulation in pathway: + = up-regulated; − = down-regulated; *non-significant down-regulation, thus, regulation is considered as non-affected (NA); details: for Up-Regulated Genes (number): cut off of two fold change of adjusted Fold Change, 48 hours
Protocol: MatTek EFT-400 full thickness tissues were used as the model for this study. Upon arrival, the full thickness tissues were placed into 6 wells plates with 2 ml of culture media and incubated overnight at 37±2° C. and 5±1% CO2. After this overnight incubation the culture media was replaced with 5 ml of fresh media and the tissues were treated topically with the test materials prepared in distilled water as follows:
After the application of the test materials the tissues were incubated at 37±2° C. and […] for 48 hours.
At the end of the treatment period, the tissues were rinsed and transferred to a 2 ml centrifuge tube containing 700 μl of lysis buffer and homogenized. After centrifuging at 14,000×g for 10 minutes at 4° C. the supernatant from each tube was transferred to a new 1.5 ml tube and mixed with and equal volume of 64% ethanol. After mixing the solutions was transferred to glass fiber filter cartridges and the cartridges were loaded into a 1.5 ml collection tube centrifuged for 1 minute at 14,000 RPM in a Napco 2002 Microcentrifuge with a DA-6T fixed angle rotor. The flow through was discarded and any remaining mixture was loaded into the filter cartridge and the centrifugation process was repeated until all of the mixture had been processed. The filter was then washed to remove any residual cellular debris from the RNA bound to the glass fibers by subsequently applying 700 μl of wash solution 1 (1 time) and 500 μl of wash solution 2 (2 times) to the filter cartridge and centrifuging at 14,000 RPM for 1 minute to pass each wash through the cartridge. After each wash, the flow through was discarded. After the final wash one final spin was performed without wash solution to remove any residual wash solution in the filter cartridge. The RNA bound to the glass fibers within the cartridge was then eluted by applying 40 μl of TE buffer (10 mM Tris-HCl, 1 mM EDTA, preheated to 70-80° C.) to the cartridge and centrifuging the cartridge in a new collection tube at 14,000 RPM for one minute. The elution process was then repeated a second time using 20 μl of TE buffer.
First Strand cDNA Synthesis: To start the first strand synthesis, 10 μl of total RNA for each sample was added to a 600 μl PCR tube and the total volume of liquid in the tube will be adjusted to 11 μl with DEPC H2O. Next, 1 μl of T7 Oligo(dT) primer was added and the tube was incubated in a water bath at 70±2° C. for 10 minutes to denature the RNA and then placed on ice to allow the primers to anneal to the poly A ends of the mRNA. After cooling 2 μl of 10× first strand buffer, 1 μl of RNAse inhibitor and 4 μl of dNTP mix were added to each tube, and the tube was incubated at 42° C. in a hybridization oven (Labnet Problot). As soon as the tube was heated, 1 μl of Reverse Transcriptase was added and the tubes were returned to 42±2° C. for 2 hours. At the end of the two hours the tubes were briefly centrifuged to collect all of the fluid at the bottom of the tube and then placed on ice.
Two tubes were prepared for the labeling process, one for Cy3 labeling (green) and one for Cy5 labeling (red). To the Cy3 tube 2 μg of aRNA prepared from the untreated/control sample (the actual color assignment for each sample is not important, but for consistency Cy3 is normally used for the untreated sample) and enough DEPC H2O was added to bring the total volume up to 4 μl. To the Cy5 tube 2 μg of aRNA prepared from the sample treated with the test material and enough DEPC H2O was added to bring the total volume up to 4 μl. To both tubes 5 μl of ASAP labeling buffer was added along with 1 μl of the specific dye for the tube (Cy3 or Cy5). The tubes were incubated for 15 minutes at 85±2° C. At the end of the 15 minutes the tubes were placed on ice to cool them and then add 2.5 μl of ASAP stop solution was added to each tube.

[8] = KEGG_NUCLEOTIDE_EXCISION_REPAIR
[9] = KEGG_SIGNALING_PATHWAYS_REGULATING_PLURIPOTENCY_OF_STEM_CELLS
[10] = WIKI_ASSEMBLY_OF_COLLAGEN_FIBRILS_AND_OTHER_MULTIMERIC_STRUCTURES

CCCCCCCCCCCCOS(=O)(=O)[O-].[Na+] [SDS]
viability (MTT) of epidermis [1]: caused epidermis death | IL-1α secretion (IL-1α [2]): dramatically increased | epidermis viability (MTT), % of the control value [3]: 15% | TNFα secretion (TNFα [4]): significant reduction | IL-1α secretion level, times of the control value (IL-1α [5]; after 48 hours): 6.5 times of the control value | IL-1α secretion level, times of the control value (IL-1α [5]; after 72 hours and 96 hours): 10.6 times of the control value | TNFα secretion (TNFα [6]): below the detection lever

NC(=O)c1cccnc1 [Niacinamide]
z-score ([7]; KEGG_APOPTOSIS): −0.6704 | z-score ([7]; KEGG_BASE_EXCISION_REPAIR): 0.1343 | Genes up and downregulation in pathway ([7]; KEGG_CELL_CYCLE): − | z-score ([7]; KEGG_CELL_CYCLE): −1.1781 | z-score ([7]; KEGG_CIRCADIAN_RHYTHM_MAMMAL): 0.1529 | z-score ([7]; KEGG_FATTY_ACID_BIOSYNTHESIS): −1.579 | z-score ([7]; KEGG_FATTY_ACID_DEGRADATION): −0.3119 | z-score ([7]; KEGG_GLYCOLYSIS_GLUCONEOGENESIS): 0.7976 | z-score ([7]; KEGG_NF_KAPPA_B_SIGNALING_PATHWAY): −0.7978 | Genes up and downregulation in pathway [7, 8]: − | z-score [7, 8]: −0.2743 | z-score ([7]; KEGG_OXIDATIVE_PHOSPHORYLATION): 0.1959 | Genes up and downregulation in pathway ([7]; KEGG_P53_SIGNALING_PATHWAY): − | z-score ([7]; KEGG_P53_SIGNALING_PATHWAY): −0.04133 | z-score ([7]; KEGG_PROTEASOME): −1.4338 | z-score ([7]; KEGG_RETINOL_METABOLISM): 0.7797 | Genes up and downregulation in pathway [7, 9]: − | z-score [7, 9]: −1.5828 | z-score ([7]; KEGG_SPHINGOLIPID_METABOLISM): −1.4272 | z-score ([7]; KEGG_TH1_AND_TH2_CELL_DIFFERENTIATION): −0.6106 | z-score ([7]; KEGG_TIGHT_JUNCTION): 1.7592 | z-score ([7]; KEGG_TNF_SIGNALING_PATHWAY): −1.6603 | z-score ([7]; KEGG_T_CELL_RECEPTOR_SIGNALING_PATHWAY): −0.515 | z-score ([7]; KEGG_WNT_SIGNALING_PATHWAY): −0.8093 | z-score ([7]; WIKI_ACTIVATION_OF_MATRIX_METALLOPROTEINASES): 1.5758 | Genes up and downregulation in pathway [7, 10]: − | z-score [7, 10]: −0.4818 | z-score ([7]; WIKI_COLLAGEN_BIOSYNTHESIS_AND_MODIFYING_ENZYMES): 1.0367 | z-score ([7]; WIKI_COLLAGEN_DEGRADATION): 0.7489 | z-score ([7]; WIKI_DEGRADATION_OF_THE_EXTRACELLULAR_MATRIX): 0.02517 | Genes up and downregulation in pathway ([7]; WIKI_ELASTIC_FIBRE_FORMATION): − | z-score ([7]; WIKI_ELASTIC_FIBRE_FORMATION): −1.0086 | z-score ([7]; WIKI_ELECTRON_TRANSPORT_CHAIN_IN_MITOCHONDRIA): −0.6757 | z-score ([7]; WIKI_EXTRACELLULAR_MATRIX_ORGANIZATION): 0.2738 | Genes up and downregulation in pathway ([7]; WIKI_KERATINIZATION): + | regulation of WIKI_KERATINIZATION pathway (Z-Score heatmap, in words) ([7]; WIKI_KERATINIZATION): up-regulated | z-score ([7]; WIKI_KERATINIZATION): 7.5403 | z-score ([7]; WIKI_NRF2_PATHWAY): 2.1898 | z-score ([7]; WIKI_RESPIRATORY_ELECTRON_TRANSPORT_ATP_SYNTHESIS): −0.7571 | z-score ([7]; WIKI_SPHINGOLIPID_METABOLISM): −0.1492 | Up-Regulated Genes (number) ([7]; 19254 genes evaluated): 133 | Up-Regulated Genes (number) ([7]; second column of Table 6): 70
